Two molecules from publication PMC11477289, “Low-Basicity 5-HT6 Receptor Ligands from the Group of Cyclic Arylguanidine Derivatives and Their Antiproliferative Activity Evaluation” (International Journal of Molecular Sciences, 2024) can be followed below.

pIC50, pKi: −log10 of the molar value.

One data set has as its system Danio rerio. As to conditions: in vivo. Here is the method: Selected compounds were evaluated for their cardiotoxicity on the Danio rerio experimental model following the OECD 236 test. […] To explore specific toxic effects of tested compounds on the central nervous systems, locomotor activity in the Danio rerio experimental model was evaluated. Studying the reaction of zebrafish larvae to light and dark conditions can be a valuable method for assessing neurotoxicity in behavioral studies. […] This response is characterized by a rapid, coordinated movement, often involving a quick burst of swimming or a change in direction. In our experimental model, we changed light into dark conditions. […] This behavior helps them avoid potential predators and maintain optimal environmental conditions.
To determine the toxicity of the compounds [66], the fish embryo toxicity (FET) test was performed on zebrafish (Danio rerio) according to OECD Test 236. […] At the end of the exposure period (96 hpf—hours postfertilization), acute toxicity was determined based on a positive outcome in any of the four visual indicators of lethality, including the coagulation of fertilized eggs, lack of somite formation, lack of detachment of the tailbud from the yolk sac, and lack of heartbeat. The value of LD50 was calculated. Heartbeats were recorded to observe cardiotoxic effects. […]

A short description of data set [1]: Affinity to phospholipids, IAM column (CHI IAM). In kind it is physicochemical. Particulars: IAM.PC.DD2 column, pH 7.4.
In data set [2] the test system is AsPC-1 pancreas adenocarcinoma cell line. In words: Antiproliferative activity (MTS), AsPC-1. Particulars: Homo sapiens, ASPC1, 72 h, read-out: IC50 Values AsPC-1.
The test system of another data set is U-251 glioblastoma cells. Kind of data set: Antiproliferative activity (MTS), U-251. Particulars: Homo sapiens, U-251, 72 h, read-out: IC50 Values U-251.
In data set [3] the test system is 1321N1 astrocytoma cell line. In words: Antiproliferative activity (MTS), 1321N1. Particulars: Homo sapiens, 1321-N1, 72 h, read-out: IC50 Values 1321N1.
For data set [4], the system named is MCF7 breast carcinoma cell line. Kind of data set: Antiproliferative activity (MTS), MCF7. Particulars: Homo sapiens, MCF7, 72 h, read-out: IC50 Values MCF7.
Data set [5] deals with human serum albumin (HSA) (Homo sapiens, UniProt P02768). Kind of data set: Binding to HSA, Chiralpak HSA column. As to conditions: Chiralpak HSA column. In a few lines:
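HSA binding (%HSA) was estimated by HPLC on a Chiralpak HSA column at 30 °C and 0.9 mL/min. The gradient ran 0–20% isopropanol in 50 mM ammonium acetate over 15 min, then held 12 min. UV detection covered 190–300 nm, and values were calibrated against reference compounds, in triplicate.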

The target of a further data set is T1, 5-HT1A receptor (Homo sapiens, UniProt P08908).
T1 sequence (P08908 1-422): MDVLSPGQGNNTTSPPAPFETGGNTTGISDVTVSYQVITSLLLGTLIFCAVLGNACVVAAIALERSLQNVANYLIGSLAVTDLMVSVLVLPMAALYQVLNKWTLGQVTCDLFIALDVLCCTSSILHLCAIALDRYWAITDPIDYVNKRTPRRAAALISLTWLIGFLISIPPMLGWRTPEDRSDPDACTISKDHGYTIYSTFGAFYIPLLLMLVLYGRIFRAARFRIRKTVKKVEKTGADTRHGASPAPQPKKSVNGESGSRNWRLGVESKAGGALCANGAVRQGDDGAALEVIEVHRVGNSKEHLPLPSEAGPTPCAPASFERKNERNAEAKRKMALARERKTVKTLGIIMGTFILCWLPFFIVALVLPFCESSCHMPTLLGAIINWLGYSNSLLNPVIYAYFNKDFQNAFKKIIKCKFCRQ
In words: [3H]-8-OHDPAT radioligand binding assay, 5-HT1A.

Sequence of human serum albumin (HSA) (P02768 25-609): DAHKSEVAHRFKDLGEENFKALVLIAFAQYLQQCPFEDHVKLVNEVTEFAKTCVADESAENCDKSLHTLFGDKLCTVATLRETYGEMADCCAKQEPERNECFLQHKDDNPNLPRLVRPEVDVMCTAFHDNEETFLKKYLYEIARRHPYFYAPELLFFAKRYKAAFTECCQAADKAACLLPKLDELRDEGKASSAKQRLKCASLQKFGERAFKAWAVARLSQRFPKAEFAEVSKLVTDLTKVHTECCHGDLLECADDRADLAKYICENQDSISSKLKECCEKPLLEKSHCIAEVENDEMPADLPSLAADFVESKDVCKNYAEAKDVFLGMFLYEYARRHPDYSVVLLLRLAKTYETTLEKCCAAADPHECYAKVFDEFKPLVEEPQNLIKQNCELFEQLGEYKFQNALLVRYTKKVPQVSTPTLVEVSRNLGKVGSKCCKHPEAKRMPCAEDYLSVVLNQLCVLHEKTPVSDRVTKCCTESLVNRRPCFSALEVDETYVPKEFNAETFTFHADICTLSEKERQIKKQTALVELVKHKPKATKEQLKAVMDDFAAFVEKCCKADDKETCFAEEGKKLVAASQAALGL

For orientation: pIC50 means −log10 of the IC50, conventionally taken in molar units. As usually defined, the pKi is the negative decadic logarithm of the Ki, by convention in mol/L. `CC1NC(NS(=O)(=O)c2cccc3ccccc23)=Nc2cccc(F)c21` (stereo not drawn) [PR 73, N -(5-fluoro-4-methyl-3,4-dihydroquinazolin-2-yl)naphthalene-1-sulfonamide]: in the data set with Danio rerio, the “cardiotoxicity (heart rate)” value was “do not show cardiotoxic properties”. Also, in data set [1], the “CHI IAM” value turned out to be 42.3. For the same molecule, the pIC50 (in data set [2]; with U-251 glioblastoma cells; in data set [3]; in data set [4]) was less than 4.60 in each case. Also, the “%HSA” value in data set [5] came to 96.6%. The molecule further came in with a logKHSA in data set [5] of 1.3. This molecule also had a pKi at 5-HT1A receptor of 4.10.

As for `CC1NC(NS(=O)(=O)c2cccc3ccccc23)=Nc2cccc(Cl)c21` (stereo not drawn) [PR 68, N -(5-chloro-4-methyl-3,4-dihydroquinazolin-2-yl)naphthalene-1-sulfonamide], the “cardiotoxicity (heart rate)” value in the data set on Danio rerio is given as “do not show cardiotoxic properties”. The “CHI IAM” value in data set [1] amounted to 45.8. Besides, the pIC50 (in data set [2]; in the data set with U-251 glioblastoma cells; in data set [3]; in data set [4]) was less than 4.60 throughout. The “%HSA” value in data set [5] came to 97.7%. The logKHSA in data set [5] came to 1.5. The molecule also had a pKi on 5-HT1A receptor of 4.45.
